We go through three compounds from paper PMC10649086 (Antimicrobial Agents and Chemotherapy, 2023).

For assay [1], the system named is SARS-CoV-2. To be noted: in vivo; cited from earlier work.
Assay [2] deals with T1, CoV-NL63 M^pro (Human coronavirus NL63, UniProt P0C6X5).
T1 construct: M^pro proteins from other human CoVs were also cloned, expressed in E. coli and purified by WuXi AppTec; host or cells: E. coli
The assay is described as follows: biochemical.

Assay [3] has as its system SARS-CoV-2 Mu. The assay is described as follows: microbe, parasite or virus in culture. The class given is cell-based.
For assay [4], the system named is SARS-CoV-2 Alpha. The assay is described as follows: microbe, parasite or virus in culture. Type of assay: cell-based.
Assay [5] concerns SARS-CoV-2 BA.2.12.1 Omicron. The experiment in a line: microbe, parasite or virus in culture. The class given is cell-based.
In assay [6] the target is T2, CoV-229E M^pro (Human coronavirus 229E, UniProt P0C6X1).
T2 construct: M^pro proteins from other human CoVs were also cloned, expressed in E. coli and purified by WuXi AppTec; host or cells: E. coli
T2 sequence (P0C6X1 2966-3267 limits assumed): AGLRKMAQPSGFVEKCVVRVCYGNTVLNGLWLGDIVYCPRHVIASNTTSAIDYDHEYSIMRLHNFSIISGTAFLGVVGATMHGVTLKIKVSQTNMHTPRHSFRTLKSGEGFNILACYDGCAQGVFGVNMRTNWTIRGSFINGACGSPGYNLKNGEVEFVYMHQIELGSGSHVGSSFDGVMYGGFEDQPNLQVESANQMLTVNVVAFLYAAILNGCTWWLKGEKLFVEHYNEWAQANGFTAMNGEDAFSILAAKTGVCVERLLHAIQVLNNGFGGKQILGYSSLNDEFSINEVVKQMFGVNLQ
The experiment in a line: biochemical.

The target of assay [7] is cathepsin K (Homo sapiens, UniProt P43235). The experiment in a line: biochemical.
Sequence of cathepsin K (P43235 115-329): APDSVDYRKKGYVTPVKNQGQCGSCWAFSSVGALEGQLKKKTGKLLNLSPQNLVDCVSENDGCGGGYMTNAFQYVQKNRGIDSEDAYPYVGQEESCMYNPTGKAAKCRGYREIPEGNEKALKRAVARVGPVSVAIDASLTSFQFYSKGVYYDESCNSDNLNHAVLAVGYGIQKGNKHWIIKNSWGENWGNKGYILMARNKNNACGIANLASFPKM
Assay [8] has as its target cathepsin S (Homo sapiens, UniProt P25774). The experiment in a line: biochemical.
For assay [9], the target named is dipeptidyl peptidase IV (Homo sapiens, UniProt P27487). Type of assay: biochemical.
Sequence of dipeptidyl peptidase IV (P27487 whole entry): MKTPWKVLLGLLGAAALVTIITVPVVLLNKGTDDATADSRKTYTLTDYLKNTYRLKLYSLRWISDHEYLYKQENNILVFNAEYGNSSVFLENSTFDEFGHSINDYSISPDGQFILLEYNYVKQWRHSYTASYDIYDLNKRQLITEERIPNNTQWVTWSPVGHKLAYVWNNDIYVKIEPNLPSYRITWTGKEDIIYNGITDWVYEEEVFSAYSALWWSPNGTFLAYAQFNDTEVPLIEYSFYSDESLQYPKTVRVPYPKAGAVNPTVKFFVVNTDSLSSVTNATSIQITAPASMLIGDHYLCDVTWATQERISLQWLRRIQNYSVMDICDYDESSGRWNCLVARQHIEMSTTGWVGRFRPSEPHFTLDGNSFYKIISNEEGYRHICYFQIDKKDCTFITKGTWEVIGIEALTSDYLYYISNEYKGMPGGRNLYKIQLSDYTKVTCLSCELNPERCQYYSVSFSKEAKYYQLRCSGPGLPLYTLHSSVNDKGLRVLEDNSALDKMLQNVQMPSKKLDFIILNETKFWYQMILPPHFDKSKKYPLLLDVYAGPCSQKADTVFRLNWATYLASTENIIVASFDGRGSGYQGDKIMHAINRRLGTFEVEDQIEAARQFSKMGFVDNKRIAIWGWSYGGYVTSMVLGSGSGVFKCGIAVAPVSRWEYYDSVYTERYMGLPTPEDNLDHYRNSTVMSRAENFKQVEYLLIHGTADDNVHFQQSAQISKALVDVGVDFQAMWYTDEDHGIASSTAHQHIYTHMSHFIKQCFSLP
The test system of assay [10] is SARS-CoV-2 Epsilon. The experiment in a line: microbe, parasite or virus in culture. Type of assay: cell-based.
Assay [11] deals with CoV-229E. The assay is described as follows: organism not typed. Type of assay: cell-based.
The target in assay [12] is T3, CoV-OC43 M^pro (Human coronavirus OC43, UniProt P0C6X6).
T3 construct: M^pro proteins from other human CoVs were also cloned, expressed in E. coli and purified by WuXi AppTec; host or cells: E. coli
T3 sequence (P0C6X6 3247-3549 limits assumed): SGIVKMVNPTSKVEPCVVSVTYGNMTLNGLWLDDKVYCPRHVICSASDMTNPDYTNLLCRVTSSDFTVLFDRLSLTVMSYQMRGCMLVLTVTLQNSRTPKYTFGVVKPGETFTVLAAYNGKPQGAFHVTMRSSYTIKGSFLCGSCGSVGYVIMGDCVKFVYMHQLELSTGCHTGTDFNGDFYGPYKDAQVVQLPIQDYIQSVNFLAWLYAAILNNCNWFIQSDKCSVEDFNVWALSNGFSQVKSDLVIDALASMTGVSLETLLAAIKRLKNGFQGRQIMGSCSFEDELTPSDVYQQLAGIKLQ
The experiment in a line: biochemical.

Assay [13] deals with calpain1 (Homo sapiens, UniProt P07384). The class given is biochemical.
Sequence of calpain1 (P07384 whole entry): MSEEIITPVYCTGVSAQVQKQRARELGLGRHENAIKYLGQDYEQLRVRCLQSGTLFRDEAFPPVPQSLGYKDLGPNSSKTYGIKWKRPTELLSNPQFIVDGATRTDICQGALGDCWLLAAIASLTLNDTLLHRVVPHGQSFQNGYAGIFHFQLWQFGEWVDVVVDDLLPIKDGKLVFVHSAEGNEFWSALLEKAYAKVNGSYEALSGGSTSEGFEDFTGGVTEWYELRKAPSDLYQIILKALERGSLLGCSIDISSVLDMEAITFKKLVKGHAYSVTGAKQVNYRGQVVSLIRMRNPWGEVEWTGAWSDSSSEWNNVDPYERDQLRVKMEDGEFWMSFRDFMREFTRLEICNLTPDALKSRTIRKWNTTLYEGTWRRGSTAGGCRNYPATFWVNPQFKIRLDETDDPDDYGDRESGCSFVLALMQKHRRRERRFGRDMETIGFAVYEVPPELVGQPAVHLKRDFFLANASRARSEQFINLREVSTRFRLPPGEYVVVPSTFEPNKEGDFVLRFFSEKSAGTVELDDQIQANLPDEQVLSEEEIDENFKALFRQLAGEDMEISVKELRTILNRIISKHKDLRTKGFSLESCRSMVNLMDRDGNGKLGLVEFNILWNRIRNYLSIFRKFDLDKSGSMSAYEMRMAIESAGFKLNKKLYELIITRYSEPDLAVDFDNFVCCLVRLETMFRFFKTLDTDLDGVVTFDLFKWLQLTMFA
Sequence of calpain1 (P04632 whole entry, further chain): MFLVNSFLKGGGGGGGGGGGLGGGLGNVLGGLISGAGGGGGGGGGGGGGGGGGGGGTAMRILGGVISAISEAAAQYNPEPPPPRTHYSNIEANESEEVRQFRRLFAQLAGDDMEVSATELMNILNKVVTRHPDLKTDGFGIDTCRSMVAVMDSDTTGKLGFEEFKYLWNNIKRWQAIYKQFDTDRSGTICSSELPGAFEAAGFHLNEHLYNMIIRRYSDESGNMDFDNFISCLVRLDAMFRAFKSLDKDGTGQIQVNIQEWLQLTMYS
Assay [14] relates to SARS-CoV-2 BA.2 Omicron. The experiment in a line: microbe, parasite or virus in culture. Type of assay: cell-based.
Assay [15] concerns CoV-OC43. The assay is described as follows: organism not typed. The class given is cell-based.
The test system of assay [16] is SARS-CoV-2 BA.5.2.1 Omicron. The experiment in a line: microbe, parasite or virus in culture. The class given is cell-based.
In assay [17] the target is cathepsin L (Homo sapiens, UniProt P07711). The assay is described as follows: biochemical.
Sequence of cathepsin L (P07711 114-333): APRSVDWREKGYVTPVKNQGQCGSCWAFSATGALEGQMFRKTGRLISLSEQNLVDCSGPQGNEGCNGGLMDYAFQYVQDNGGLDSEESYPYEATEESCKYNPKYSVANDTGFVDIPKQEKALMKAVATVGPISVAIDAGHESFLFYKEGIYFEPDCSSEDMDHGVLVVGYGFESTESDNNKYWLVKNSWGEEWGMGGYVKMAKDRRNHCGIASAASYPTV
Assay [18] relates to SARS-CoV-2 BA.1.1 Omicron. The assay is described as follows: microbe, parasite or virus in culture. The class given is cell-based.
Assay [19] concerns the target T4, CoV-HKU1 M^pro (Human coronavirus HKU1, UniProt P0C6X2).
T4 construct: M^pro proteins from other human CoVs were also cloned, expressed in E. coli and purified by WuXi AppTec; host or cells: E. coli
The assay is described as follows: biochemical.

Assay [20] deals with cathepsin D (Homo sapiens, UniProt P07339). The class given is biochemical.
Sequence of cathepsin D (P07339 65-412): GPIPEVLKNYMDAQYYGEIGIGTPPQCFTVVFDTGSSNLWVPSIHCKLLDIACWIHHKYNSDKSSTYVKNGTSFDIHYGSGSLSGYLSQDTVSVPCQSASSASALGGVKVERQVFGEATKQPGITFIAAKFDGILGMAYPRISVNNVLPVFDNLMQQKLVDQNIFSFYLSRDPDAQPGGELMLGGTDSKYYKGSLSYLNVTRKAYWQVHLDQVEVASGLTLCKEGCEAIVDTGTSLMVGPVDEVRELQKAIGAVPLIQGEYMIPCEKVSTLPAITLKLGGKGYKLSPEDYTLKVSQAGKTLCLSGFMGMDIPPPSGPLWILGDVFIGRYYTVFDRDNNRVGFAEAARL
Assay [21] deals with caspase 3 (Homo sapiens, UniProt P42574). Type of assay: biochemical.
Sequence of caspase 3 (P42574 29-175): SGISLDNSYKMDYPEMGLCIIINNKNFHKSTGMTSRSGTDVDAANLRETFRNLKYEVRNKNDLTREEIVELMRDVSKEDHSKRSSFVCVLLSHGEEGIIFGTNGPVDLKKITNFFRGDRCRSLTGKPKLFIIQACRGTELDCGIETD
Sequence of caspase 3 (P42574 176-277): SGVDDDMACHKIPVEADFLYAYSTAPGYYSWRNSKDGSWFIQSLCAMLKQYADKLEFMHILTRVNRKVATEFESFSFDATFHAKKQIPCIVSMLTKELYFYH
Assay [22] has as its target cathepsin B (Homo sapiens, UniProt P07858). The experiment in a line: biochemical.
The subject of assay [23] is SARS-CoV-2 AY.20 Delta. The experiment in a line: microbe, parasite or virus in culture. Type of assay: cell-based.
The subject of assay [24] is SARS-CoV-2. To be noted: human, in vivo; cited from earlier work.
Assay [25] deals with SARS-CoV-2 BA.4.1 Omicron. The experiment in a line: microbe, parasite or virus in culture. Type of assay: cell-based.
The target in assay [26] is thrombin (Homo sapiens, UniProt P00734). Type of assay: biochemical.
Assay [27] relates to elastase. Type of assay: biochemical, human.
Assay [28] concerns SARS-CoV-2 Delta. The assay is described as follows: microbe, parasite or virus in culture. The class given is cell-based.
Assay [29] has as its target caspase-2 (Homo sapiens, UniProt P42575). Type of assay: biochemical.
Assay [30] has as its system SARS-CoV-2 WA1 NLuc. The assay is described as follows: microbe, parasite or virus in culture. Type of assay: cell-based.
The subject of assay [31] is SARS-CoV-2 Wuhan replicon (WT). The assay is described as follows: microbe, parasite or virus in culture. The class given is cell-based.
Assay [32] has as its target T5, SARS-CoV-2 M^pro (Severe acute respiratory syndrome coronavirus 2, UniProt P0DTC1).
T5 construct: composed of about 300 amino acids embedded in the polyproteins as the nsp5 domain; purchased BPS Biosciences
The class given is biochemical.

Assay [33] addresses chymotrypsin C (Homo sapiens, UniProt Q99895). The class given is biochemical.
Assay [34] addresses T6, SARS-CoV2 WT M^pro (Severe acute respiratory syndrome coronavirus 2, UniProt P0DTC1).
T6 construct: codon-optimized cDNA of SARS-CoV-2 M^pro (QIZ13716.1_ORF1a) was cloned into the pET28a vector; host or cells: E. coli
The class given is biochemical, SARS-CoV-2.

Where [35] appears, read: Severe acute respiratory syndrome coronavirus 2, read-out: EC50 Mean (SD).
[36] abbreviates: Severe acute respiratory syndrome coronavirus 2, read-out: EC90 Mean (SD).

Where two headings read alike, the source gives them in different places.

Sequence of caspase-2 (P42575 170-325): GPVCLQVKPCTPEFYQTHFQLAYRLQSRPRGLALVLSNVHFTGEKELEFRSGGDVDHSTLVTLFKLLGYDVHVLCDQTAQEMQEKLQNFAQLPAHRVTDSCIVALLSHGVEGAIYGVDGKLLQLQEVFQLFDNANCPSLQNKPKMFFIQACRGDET
Sequence of caspase-2 (P42575 348-452): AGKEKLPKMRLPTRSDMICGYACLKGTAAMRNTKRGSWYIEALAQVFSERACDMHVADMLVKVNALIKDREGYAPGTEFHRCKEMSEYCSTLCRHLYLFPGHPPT
Sequence of chymotrypsin C (Q99895 30-268): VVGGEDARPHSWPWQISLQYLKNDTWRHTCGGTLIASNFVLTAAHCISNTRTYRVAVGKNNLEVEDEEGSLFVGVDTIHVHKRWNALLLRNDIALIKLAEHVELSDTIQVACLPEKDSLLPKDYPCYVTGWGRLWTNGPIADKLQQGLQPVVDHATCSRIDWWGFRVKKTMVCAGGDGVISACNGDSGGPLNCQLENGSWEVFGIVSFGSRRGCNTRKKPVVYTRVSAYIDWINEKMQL
Sequence of cathepsin S (P25774 115-331): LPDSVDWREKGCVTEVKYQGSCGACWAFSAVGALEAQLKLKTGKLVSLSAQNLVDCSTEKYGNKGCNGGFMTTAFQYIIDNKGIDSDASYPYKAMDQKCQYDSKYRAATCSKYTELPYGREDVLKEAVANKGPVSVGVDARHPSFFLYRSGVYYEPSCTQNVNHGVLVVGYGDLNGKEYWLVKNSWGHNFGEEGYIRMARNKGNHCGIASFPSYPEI
T1 sequence (P0C6X5 2940-3242 limits assumed): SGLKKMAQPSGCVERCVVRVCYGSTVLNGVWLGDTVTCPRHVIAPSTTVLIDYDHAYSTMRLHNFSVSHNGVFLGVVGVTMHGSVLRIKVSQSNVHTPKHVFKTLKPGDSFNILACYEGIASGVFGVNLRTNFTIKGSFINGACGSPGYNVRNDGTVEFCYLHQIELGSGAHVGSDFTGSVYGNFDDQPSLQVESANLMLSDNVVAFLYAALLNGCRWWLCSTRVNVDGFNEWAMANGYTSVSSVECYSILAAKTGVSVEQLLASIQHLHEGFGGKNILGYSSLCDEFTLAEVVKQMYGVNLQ
T4 sequence (P0C6X2 3335-3637 limits assumed): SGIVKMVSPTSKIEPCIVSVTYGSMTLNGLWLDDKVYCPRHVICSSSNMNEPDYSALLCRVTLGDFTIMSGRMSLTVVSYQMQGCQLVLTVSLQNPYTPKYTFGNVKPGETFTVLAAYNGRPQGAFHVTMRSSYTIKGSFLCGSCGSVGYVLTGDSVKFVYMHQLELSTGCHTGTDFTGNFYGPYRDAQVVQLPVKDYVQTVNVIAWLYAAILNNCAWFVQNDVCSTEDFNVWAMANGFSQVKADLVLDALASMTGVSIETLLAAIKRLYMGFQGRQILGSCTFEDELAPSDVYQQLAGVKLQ

With `CC(C)C[C@@H](C(=O)N1C[C@]2(C[C@H]1C#N)C(=O)Nc1ccccc12)N(C)C(=O)c1cc2c(F)cc(F)c(F)c2[nH]1` [EDP-235], in [1], the “effect on viral RNA decline or infectious viral load in nasal samples” value is recorded as “failed to demonstrate the effect on viral RNA decline or infectious viral load in nasal samples”.
`N#C[C@H](C[C@@H]1CCCNC1=O)NC(=O)[C@H](CC1CC1)NC(=O)c1cc2cccc(Cl)c2[nH]1` [pomotrelvir]: the IC50 in assay [2] was found to be 206 nM; in assay [6], 141 nM; in assay [12], 158 nM; in [19], 61 nM. The EC50 in [3] (setting [35]) was determined as 73 nM; in assay [4] (setting [35]), 95 nM; in assay [5] (setting [35]) it was 60 nM; in assay [10] (setting [35]), 195 nM; in [11] (read-out: Mean EC50 (SD)), 180 nM; in [14] (read-out: EC50 Mean (SD)) it was 139 nM. The EC50 was 380 nM in assay [15] (Huh-7, read-out: Mean EC50 (SD)); 256 nM in assay [16] (setting [35]); 94 nM in [18] (setting [35]); 374 nM in assay [23] (setting [35]); 244 nM in [25] (setting [35]); 251 nM in [28] (setting [35]). The EC50 in [30] (read-out: Mean EC50 (SD)) is 23 nM; in assay [31] (Severe acute respiratory syndrome coronavirus 2, Huh-7, read-out: EC50 Mean (SD)) it was 31 nM; in [31] (read-out: Mean EC50 (SD)), 27 nM. The EC90 in assay [3] (setting [36]) worked out at 195 nM; in [4] (setting [36]), 144 nM; in [5] (setting [36]) it was 171 nM; in [10] (setting [36]), 777 nM; in assay [11] (MRC5, read-out: Mean EC90 (SD)) it was 410 nM; in [14] (setting [36]), 668 nM. Further, the EC90 in assay [15] (Huh-7, read-out: Mean EC90 (SD)) turned out to be 490 nM; in assay [16] (setting [36]), 1270 nM; in [18] (setting [36]), 213 nM; in assay [23] (setting [36]), 672 nM; in assay [25] (setting [36]) it was 1120 nM; in [28] (setting [36]), 425 nM. The EC90 is 114 nM in assay [30] (Severe acute respiratory syndrome coronavirus 2, A549-ACE2, read-out: Mean EC90 (SD)); 170 nM in [31] (Severe acute respiratory syndrome coronavirus 2, Huh-7, read-out: EC90 Mean (SD)); 150 nM in assay [31] (read-out: Mean EC90 (SD)). Moreover, the Ki in assay [7] is 289 nM; in assay [8], 445 nM; in [17] it was 7400 nM; in assay [22] it was 1270 nM. Besides, the inhibitory activity entry in assay [9], in [13], in [20], in assay [21], in assay [26] and in assay [27] was “no inhibitory activity was observed” throughout. Moreover, the inhibitory activity result in [29] and in assay [33] was “no inhibitory activity was observed” throughout. The “primary endpoint: proportion of patients below the limit of detection by infectious virus assay on day 3 of treatment” value in assay [24] is “did not meet the primary endpoint”. Besides, the alpha factor in [32] came to 10.4.
GC376 showed an IC50 in assay [34] of 20 nM.
